Experimental findings from PubChem BioAssay (NCI) are described below.

Among the test systems are SF-268 CNS; CAKI-1 renal; SK-MEL-2 melanoma; HT29 colon; SF-539 CNS; SK-MEL-28 melanoma; A498 renal; SK-MEL-5 melanoma; OVCAR-4 ovarian; A549 NSCLC.
Holding throughout (assay): NCI-60 cell line screen, 48 h

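Test compounds were applied to cells in 96-well plates for 48 hours at 5 doses. The concentration for 50% growth inhibition is given as GI50. At the TGI there is no net growth.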 Where only a bound is given, the exact number is not on record here.

`C=C1C(=O)C23C(O)C1CC[C@H]2C12CCCC(C)(COC(C)=O)[C@H]1[C@H](O)[C@]3(O)OC2` (stereo not given in full): the TGI with SF-268 CNS amounted to 6.95 µM; in the assay with CAKI-1 renal, 3.44 µM; with SK-MEL-2 melanoma it was 3.49 µM; with HT29 colon, 3.36 µM; in the assay with SF-539 CNS it was 3.07 µM; with SK-MEL-28 melanoma it was 2.97 µM. The TGI was found to be 6.77 µM in the assay with A498 renal, 3.26 µM in the assay on SK-MEL-5 melanoma, 5.49 µM with OVCAR-4 ovarian and 9.95 µM in the assay with A549 NSCLC.

Regarding `Cn1c(=O)nc2n(-c3ccc(Cl)c(C(F)(F)F)c3)c3ccccc3nc-2c1=O`, the TGI in the assay on SF-268 CNS is more than 100 µM; with CAKI-1 renal, more than 100 µM; with SK-MEL-2 melanoma, more than 100 µM; in the assay with HT29 colon it was 64.8 µM; in the assay with SF-539 CNS, more than 79.9 µM; with SK-MEL-28 melanoma, more than 100 µM. Further, the TGI in the assay on A498 renal was more than 100 µM; with SK-MEL-5 melanoma it was 26.9 µM; with OVCAR-4 ovarian it was 62.9 µM; with A549 NSCLC it was more than 86.3 µM.

In the case of `CCCCCCCCCCCCCCCCCCOCC(COCCOCC[N+]1(CCCCCC(=O)[O-])CCCC1)Oc1ncccn1` (stereo not given), the TGI in the assay on SF-268 CNS worked out at 16.5 µM; in the assay with CAKI-1 renal, 22.7 µM; in the assay on SK-MEL-2 melanoma, 20 µM; in the assay with HT29 colon, 13.7 µM; with SF-539 CNS it was 15.8 µM; with SK-MEL-28 melanoma it was 22.2 µM. In addition, the TGI in the assay on A498 renal came to 9.55 µM; in the assay on SK-MEL-5 melanoma, 15.2 µM; with OVCAR-4 ovarian, 4.22 µM; in the assay on A549 NSCLC it was 20 µM.

In the case of `C[C@]12C/C(=C/O)C(=O)C(O)=C1CC[C@@H]1C2CC[C@@]2(C)C1CC[C@@H]2O` (stereo not given in full), the TGI with SF-268 CNS amounted to 54.1 µM; with CAKI-1 renal it was 76.6 µM; in the assay on SK-MEL-2 melanoma, 55.4 µM; in the assay with HT29 colon, 65.1 µM; in the assay on SF-539 CNS it was 34.2 µM; with SK-MEL-28 melanoma, 48.2 µM. Further, the TGI in the assay with A498 renal is 65.1 µM; in the assay with SK-MEL-5 melanoma, 42.9 µM; with OVCAR-4 ovarian it was 62.7 µM; in the assay on A549 NSCLC, more than 100 µM.

Consider `N#C/C(=C1\SC(N=Nc2ccc(Cl)cc2)C(=O)N1c1ccccc1)c1nc2ccccc2[nH]1` (stereo not given), for which the TGI with SF-268 CNS was more than 100 µM; in the assay with CAKI-1 renal, more than 100 µM; with SK-MEL-2 melanoma, 62 µM; with HT29 colon, more than 100 µM; in the assay with SF-539 CNS, more than 100 µM; in the assay on SK-MEL-28 melanoma, more than 100 µM. For the same molecule, the TGI with A498 renal was 58.4 µM; in the assay on SK-MEL-5 melanoma it was more than 100 µM; with OVCAR-4 ovarian it was 55.8 µM; in the assay with A549 NSCLC it was 87.3 µM.

Turning to `CCCCCCCCCCCC1CC(=O)NCCCN(C)CCCCN(C)CCCN1C` (stereo not given), the TGI amounted to 3.3 µM in the assay on SF-268 CNS; 3.54 µM in the assay with CAKI-1 renal; 3.16 µM in the assay with SK-MEL-2 melanoma; 2.97 µM in the assay with HT29 colon; 3.17 µM in the assay with SF-539 CNS; 3.09 µM in the assay with SK-MEL-28 melanoma. Further, the TGI in the assay with A498 renal came out at 3.14 µM; in the assay on SK-MEL-5 melanoma, 3.43 µM; with OVCAR-4 ovarian, 3.12 µM; in the assay on A549 NSCLC, 3.16 µM.

On to `COc1ccc(C(=O)c2nc3ccccc3n2CC(=O)c2ccc(Cl)cc2)cc1`, for which the GI50 was 5.98 µM in the assay on SF-268 CNS; 53.6 µM with CAKI-1 renal; 12.6 µM in the assay with SK-MEL-2 melanoma; 2.82 µM with HT29 colon; 2.85 µM with SF-539 CNS; 3.02 µM with SK-MEL-28 melanoma. Further, the GI50 in the assay on A498 renal was 4.07 µM; in the assay on SK-MEL-5 melanoma, 2.55 µM; with OVCAR-4 ovarian, 5.02 µM; in the assay with A549 NSCLC, 17.5 µM. Further, the TGI in the assay on SF-268 CNS was more than 100 µM; in the assay on CAKI-1 renal, more than 100 µM; in the assay with SK-MEL-2 melanoma it was more than 100 µM; with HT29 colon, more than 100 µM; in the assay on SF-539 CNS, more than 30.5 µM; in the assay on SK-MEL-28 melanoma, more than 100 µM. In addition, the TGI is 39.4 µM in the assay with A498 renal, 12.9 µM with SK-MEL-5 melanoma, more than 100 µM in the assay on OVCAR-4 ovarian and more than 100 µM in the assay with A549 NSCLC.

With `CC(C)[O-].CC(C)[O-].CN(CCN(C)Cc1cc(F)cc(F)c1[O-])Cc1cc(F)cc(F)c1[O-].[Ti+4]`, the GI50 with SF-268 CNS is 1.04 µM; in the assay on CAKI-1 renal, 0.874 µM; with SK-MEL-2 melanoma, 1.52 µM; in the assay on HT29 colon, 1.72 µM; with SF-539 CNS, 1.01 µM; in the assay on SK-MEL-28 melanoma, 0.692 µM. Further, the GI50 in the assay with A498 renal is 1.13 µM; with SK-MEL-5 melanoma, 0.467 µM; in the assay on OVCAR-4 ovarian, 0.717 µM; with A549 NSCLC, 0.892 µM. Moreover, the TGI in the assay on SF-268 CNS was 3.22 µM; in the assay on CAKI-1 renal, 6.45 µM; in the assay with SK-MEL-2 melanoma, 4.95 µM; with HT29 colon it was 3.81 µM; in the assay on SF-539 CNS, 4.8 µM; in the assay on SK-MEL-28 melanoma, 2.17 µM. The TGI in the assay on A498 renal was determined as 2.76 µM; in the assay with SK-MEL-5 melanoma, 1.67 µM; with OVCAR-4 ovarian, 7.18 µM; in the assay on A549 NSCLC, 7.95 µM.

In the case of `COc1ccc(-c2c(C3=NCCCN3)nnn2-c2ccc([N+](=O)[O-])cc2)cc1`, the TGI with SF-268 CNS, in the assay with CAKI-1 renal, in the assay on SK-MEL-2 melanoma, in the assay with HT29 colon, in the assay with SF-539 CNS and with SK-MEL-28 melanoma was more than 100 µM throughout. Further, the TGI in the assay with A498 renal, in the assay with SK-MEL-5 melanoma, in the assay with OVCAR-4 ovarian and with A549 NSCLC was more than 100 µM each time.

For `c1ccc(-c2nc(N3CCCNCC3)c3nc(-c4ccccc4)oc3n2)cc1`, the GI50 was 1.76 µM in the assay on SF-268 CNS; 1.52 µM in the assay with CAKI-1 renal; 1.83 µM with SK-MEL-2 melanoma; 1.76 µM in the assay with HT29 colon; 1.64 µM with SF-539 CNS; 1.71 µM in the assay with SK-MEL-28 melanoma. Further, the GI50 in the assay with A498 renal was 1.07 µM; in the assay with SK-MEL-5 melanoma, 1.77 µM; in the assay with OVCAR-4 ovarian it was 1.98 µM; with A549 NSCLC, 1.8 µM. Further, the TGI is 3.62 µM in the assay on SF-268 CNS; 3.02 µM with CAKI-1 renal; 3.49 µM in the assay on SK-MEL-2 melanoma; 3.72 µM in the assay with HT29 colon; 3.03 µM in the assay on SF-539 CNS; 3.15 µM in the assay on SK-MEL-28 melanoma. The TGI was found to be 2.3 µM in the assay with A498 renal, 3.18 µM in the assay on SK-MEL-5 melanoma, 3.67 µM with OVCAR-4 ovarian and 3.71 µM in the assay on A549 NSCLC.

For the molecule `O=C1c2ccccc2-c2c1c1c(NCCCO)nc3ccccc3c1n2Cc1ccccc1`, the GI50 is 22.7 µM with SF-268 CNS; 18.6 µM in the assay with CAKI-1 renal; 20.4 µM in the assay on SK-MEL-2 melanoma; 17.1 µM in the assay on HT29 colon; 18.5 µM in the assay with SF-539 CNS; 20.6 µM in the assay with SK-MEL-28 melanoma. In addition, the GI50 was 21.6 µM in the assay with A498 renal, 31 µM in the assay on SK-MEL-5 melanoma, 23 µM with OVCAR-4 ovarian and 29.7 µM in the assay with A549 NSCLC. The TGI was found to be 51.9 µM in the assay on SF-268 CNS; 38.4 µM in the assay on CAKI-1 renal; 52.3 µM in the assay with SK-MEL-2 melanoma; 30.8 µM in the assay on HT29 colon; 36.7 µM with SF-539 CNS; 38.1 µM with SK-MEL-28 melanoma. Also, the TGI in the assay on A498 renal was 48.6 µM; in the assay on SK-MEL-5 melanoma, more than 100 µM; in the assay on OVCAR-4 ovarian, 57 µM; with A549 NSCLC, 75.5 µM.

As to `Fc1ccc2nc(-c3cc(-c4ccc5c(c4)OCO5)n[nH]3)[nH]c2c1`, the GI50 in the assay with SF-268 CNS was 5.22 µM; in the assay on CAKI-1 renal, 2.44 µM; with SK-MEL-2 melanoma it was 2.87 µM; in the assay with HT29 colon, 5.06 µM; in the assay with SF-539 CNS, 3.24 µM; in the assay with SK-MEL-28 melanoma, 8.61 µM. Also, the GI50 in the assay on A498 renal was 3.27 µM; in the assay with SK-MEL-5 melanoma it was 1.56 µM; in the assay with OVCAR-4 ovarian, 1.37 µM; with A549 NSCLC, 2.51 µM. The TGI in the assay on SF-268 CNS is more than 54.9 µM; in the assay with CAKI-1 renal, more than 55.7 µM; in the assay with SK-MEL-2 melanoma, 17.1 µM; in the assay on HT29 colon, more than 37.8 µM; in the assay on SF-539 CNS, 31.2 µM; in the assay with SK-MEL-28 melanoma, 53.2 µM. For the same molecule, the TGI with A498 renal was more than 100 µM; in the assay with SK-MEL-5 melanoma, 3.14 µM; in the assay with OVCAR-4 ovarian, 4.8 µM; in the assay with A549 NSCLC it was 13.8 µM.

Consider `COc1cc(CNc2nc3ccc(C(F)(F)F)cc3nc2-c2ccccc2)cc(OC)c1OC`, for which the TGI with SF-268 CNS, in the assay with CAKI-1 renal, in the assay with SK-MEL-2 melanoma, with HT29 colon, in the assay with SF-539 CNS and in the assay with SK-MEL-28 melanoma was more than 100 µM in each case. Moreover, the TGI is more than 100 µM in the assay on A498 renal, 87 µM with SK-MEL-5 melanoma, more than 100 µM in the assay with OVCAR-4 ovarian and more than 100 µM in the assay with A549 NSCLC.

`CCCCCCC(C)CCCCCCCCCCC(=O)O` (stereo not given): the TGI in the assay on SF-268 CNS, in the assay with CAKI-1 renal, in the assay with SK-MEL-2 melanoma, with HT29 colon, in the assay with SF-539 CNS and in the assay on SK-MEL-28 melanoma was more than 100 µM throughout. In addition, the TGI with A498 renal, in the assay with SK-MEL-5 melanoma, in the assay on OVCAR-4 ovarian and in the assay with A549 NSCLC was more than 100 µM in each case.

With `O=C(Cl)C1=C(c2ccccc2)C1c1ccccc1` (stereo not given), the TGI with SF-268 CNS, in the assay with CAKI-1 renal, in the assay on SK-MEL-2 melanoma, in the assay with HT29 colon, in the assay on SF-539 CNS and in the assay with SK-MEL-28 melanoma was more than 100 µM each time. Further, the TGI in the assay on A498 renal, in the assay on SK-MEL-5 melanoma, with OVCAR-4 ovarian and with A549 NSCLC was more than 100 µM each time.
